As usually defined, the Ki is a dissociation constant, usually derived from enzyme kinetics or from competition with a known ligand. A low value points to tighter binding.

For assay [1], the target named is hCA I (Homo sapiens, UniProt P00915). As to the kind of experiment: stopped-flow CO2 hydrase assay, hCA I. It is filed as biochemical.
The target in assay [2] is hCA II (Homo sapiens, UniProt P00918). Nature of the assay: stopped-flow CO2 hydrase assay, hCA II. It is filed as biochemical.
The target of assay [3] is hCA IX (Homo sapiens, UniProt Q16790). As to the kind of experiment: biochemical.
Assay [4] has as its target hCA XII (Homo sapiens, UniProt O43570). As to the kind of experiment: stopped-flow CO2 hydrase assay, hCA XII. It is filed as biochemical.

Each structure is given as a SMILES string.

hCA I, sequence (P00915 whole entry): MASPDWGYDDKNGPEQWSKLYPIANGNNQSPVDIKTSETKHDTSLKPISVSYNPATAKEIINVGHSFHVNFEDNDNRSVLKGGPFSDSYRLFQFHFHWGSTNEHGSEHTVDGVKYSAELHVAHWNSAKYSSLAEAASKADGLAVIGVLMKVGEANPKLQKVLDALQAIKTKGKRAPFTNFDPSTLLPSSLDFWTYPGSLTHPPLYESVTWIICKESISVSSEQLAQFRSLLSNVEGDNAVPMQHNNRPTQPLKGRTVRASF
hCA XII, sequence (O43570 25-354): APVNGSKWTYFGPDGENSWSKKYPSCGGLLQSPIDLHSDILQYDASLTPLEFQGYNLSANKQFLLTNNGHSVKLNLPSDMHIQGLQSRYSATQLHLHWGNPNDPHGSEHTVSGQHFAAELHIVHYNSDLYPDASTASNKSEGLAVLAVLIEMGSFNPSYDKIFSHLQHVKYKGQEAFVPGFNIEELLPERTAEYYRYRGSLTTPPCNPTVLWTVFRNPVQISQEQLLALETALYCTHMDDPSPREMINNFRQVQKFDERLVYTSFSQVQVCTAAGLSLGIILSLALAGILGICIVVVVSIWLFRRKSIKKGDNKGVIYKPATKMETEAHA

On to `O=C(c1cc2ccc(O)cc2oc1=O)N1CCN(S(=O)(=O)c2ccc(Br)s2)CC1` [12c, 3–(4-((5-Bromothiophen-2-yl)sulphonyl)piperazine-1-carbonyl)-7-hydroxy-2H-chromen-2-one], for which the Ki was > 100 µM in assay [1], > 100 µM in assay [2], 50.7 µM in assay [3] and > 100 µM in assay [4].

`O=C(c1cc2ccccc2oc1=O)N1CCN(C(=S)Nc2ccc(Cl)cc2)CC1` [7b, N-(4-chlorophenyl)-4–(2-oxo-2H-chromene-3-carbonyl)piperazine-1-carbothioamide]: the Ki was > 100 µM in assay [1], > 100 µM in assay [2], 9.2 µM in assay [3] and 8 µM in assay [4].

As to `O=C(c1cc2ccc(O)cc2oc1=O)N1CCN(S(=O)(=O)c2ccc(F)cc2)CC1` [12a, 3–(4-((4-Fluorophenyl)sulphonyl)piperazine-1-carbonyl)-7-hydroxy-2H-chromen-2-one], the Ki in assay [1] is > 100 µM; in assay [2], > 100 µM; in assay [3] it was > 100 µM; in assay [4], 86.6 µM.

Turning to `O=C(c1c(O)c2ccccc2oc1=O)N1CCN(S(=O)(=O)c2ccccc2)CC1` [16b, 4-Hydroxy-3–(4-(phenylsulfonyl)piperazine-1-carbonyl)-2H-chromen-2-one], the Ki in assay [1] is > 100 µM; in assay [2], > 100 µM; in assay [3] it was 90.9 µM; in assay [4], 9.5 µM.

`O=C(c1c(O)c2ccccc2oc1=O)N1CCN(S(=O)(=O)c2ccc(F)cc2)CC1` [16a, 3–(4-((4-Fluorophenyl)sulphonyl)piperazine-1-carbonyl)-4-hydroxy-2H-chromen-2-one]: the Ki in assay [1] is > 100 µM; in assay [2], > 100 µM; in assay [3], > 100 µM; in assay [4], 92.2 µM.

In the case of `C/C(=N\OCc1ccc(Cl)cc1)c1cc2ccccc2oc1=O` [20b, (E)-3–(1-(((4-chlorobenzyl)oxy)imino)ethyl)-2H-chromen-2-one], the Ki in assay [1] is > 100 µM; in assay [2] it was > 100 µM; in assay [3] it was 8.9 µM; in assay [4], 9.4 µM.

Turning to `C/C(=N\OCc1ccc(F)cc1)c1cc2ccccc2oc1=O` [20a, (E)-3–(1-(((4-fluorobenzyl)oxy)imino)ethyl)-2H-chromen-2-one], the Ki in assay [1] was > 100 µM; in assay [2], > 100 µM; in assay [3], 62.1 µM.

Regarding `O=C(c1cc2ccccc2oc1=O)N1CCN(S(=O)(=O)c2ccc([N+](=O)[O-])cc2)CC1` [6a, 3–(4-((4-Nitrophenyl)sulphonyl)piperazine-1-carbonyl)-2H-chromen-2-one], the Ki was > 100 µM in assay [1], > 100 µM in assay [2], 7.1 µM in assay [3] and 9.1 µM in assay [4].

Take `O=C(c1c(O)c2ccccc2oc1=O)N1CCN(S(=O)(=O)c2ccc(Br)s2)CC1` [16c, 3–(4-((5-Bromothiophen-2-yl)sulphonyl)piperazine-1-carbonyl)-4-hydroxy-2H-chromene-2-one]: the inhibitory constant (Ki) in assay [1] is > 100 µM; in assay [2], > 100 µM; in assay [3], > 100 µM; in assay [4], 36.5 µM.

As for `CCS(=O)(=O)N1CCN(C(=O)c2cc3ccccc3oc2=O)CC1` [6e, 3–(4-(Ethylsulfonyl)piperazine-1-carbonyl)-2H-chromen-2-one], the Ki was > 100 µM in assay [1], > 100 µM in assay [2], 37.8 µM in assay [3] and 26.1 µM in assay [4].

Turning to `O=C(c1cc2ccccc2oc1=O)N1CCN(C(=S)Nc2ccccc2Cl)CC1` [7a, N-(2-chlorophenyl)-4–(2-oxo-2H-chromene-3-carbonyl)piperazine-1-carbothioamide], the Ki is > 100 µM in assay [1], > 100 µM in assay [2], 72 µM in assay [3] and 47.8 µM in assay [4].

As to `O=C(c1cc2ccccc2oc1=O)N1CCN(S(=O)(=O)c2ccc(Br)s2)CC1` [6d, 3–(4-((5-Bromothiophen-2-yl)sulphonyl)piperazine-1-carbonyl)-2H-chromen-2-one], the inhibition constant Ki is > 100 µM in assay [1], > 100 µM in assay [2], 5.56 µM in assay [3] and 9.8 µM in assay [4].

Regarding `O=C(c1cc2ccccc2oc1=O)N1CCN(S(=O)(=O)c2cccs2)CC1` [6c, 3–(4-(Thiophen-2-ylsulfonyl)piperazine-1-carbonyl)-2H-chromen-2-one], the Ki in assay [1] is > 100 µM; in assay [2], > 100 µM; in assay [4], 66.7 µM.

With `O=C(c1cc2ccccc2oc1=O)N1CCN(C(=S)Nc2ccccc2)CC1` [7c, 4–(2-Oxo-2H-chromene-3-carbonyl)-N-phenylpiperazine-1-carbothioamide], the Ki was > 100 µM in assay [1], > 100 µM in assay [2] and 31.8 µM in assay [4].

As to `O=C(c1cc2ccc(O)cc2oc1=O)N1CCN(S(=O)(=O)c2ccccc2)CC1` [12b, 7-Hydroxy-3–(4-(phenylsulfonyl)piperazine-1-carbonyl)-2H-chromen-2-one], the Ki was > 100 µM in assay [1], > 100 µM in assay [2], > 100 µM in assay [3] and 9.3 µM in assay [4].

(Values after paper PMC10013565 (Journal of Enzyme Inhibition and Medicinal Chemistry, 2023).)
